Source: patent US20230096663A1, “FARNESOID X RECEPTOR MODULATING COMPOUNDS AND METHODS OF USING THE SAME” (Inorbit Therapeutics AB, priority 2020, published 2023)
Like-named read-outs stand apart in the source and are kept apart here.

Tests used:
[1] = tested on: FXR related genes (BSEP, SHP) in primary human hepatocytes; assay: Gene expression in human primary hepatocytes (BSEP, SHP); assay type: cell-based; settings: 24 hours incubation
Procedure: The test compound was dissolved in buffer to give a 10 mM stock solution. The compound was serially diluted to the desired concentrations and then incubated with human primary hepatocytes for 24 hours at 37° C. in a CO2 incubator. After incubation, the media was removed and the RNA harvested using the Trizol-CHCl3 method and quantified using Nano drop. The RNA was then Reverse Transcribed to cDNA using a superscript vilo cDNA synthesis kit. The cDNA with respective Taqman primers, master mix are then amplified using quantitative RT-PCR system. […] The compounds of examples 2 and 3 upregulate FXR related and disease relevant genes on incubation with primary human hepatocytes. […] It is a uni-directional, ATP-dependent efflux transporter that plays an important role in the elimination of bile salts from the hepatocyte into the bile canaliculi for export into the gastrointestinal tract. FXR also induces the expression of small heterodimer partner (SHP) which controls a complex set of genes in multiple metabolic pathways. It reduces the expression of CYP7A1, a liver-specific enzyme that catalyzes the first and rate-limiting step in one of the two pathways for bile acid biosynthesis.

[2] = Compound exposure in plasma and liver of HFHC fed male mice; assay type: in vivo; settings: C57BL/6J, mouse, oral; for Kp at 4 h: liver/plasma, 4 hours after last dose on day 28, read-out: Ratio (liver to plasma exposure)
STAM model NASH mice = assay: In-vivo efficacy in STAM model of non-alcoholic steatohepatitis; settings: oral once daily for three weeks, 0.3, 1 or 3 mg/kg
Procedure: NASH was induced in male mice by a single subcutaneous injection of 200 μg streptozotocin (STZ, Sigma-Aldrich, USA) solution 2 days after birth and feeding with high fat diet (HFD, 57 kcal % fat, Cat #HFD32, CLEA Japan, Inc., Japan) after 4 weeks of age. NASH model mice were randomized into groups of 8 mice at 6 weeks of age based on their body weight the day before the start of treatment. The compound of Example 2 was then administered orally in a volume of 10 ml/kg at dose levels 0.3 mg/kg, 1 mg/kg and 3 mg/kg once daily for 3 weeks. […] NAFLD Activity score (NAS) was calculated according to the criteria of Kleiner (Kleiner D E. et al., Hepatology, 2005; 41:1313). […] For quantitative analysis of fibrosis area, bright field images of Sirius red-stained sections were captured around the central vein using a digital camera (DFC295; Leica, Germany) at 200-fold magnification, and the positive areas in 5 fields/section were measured using ImageJ software (National Institute of Health, USA). […] The score can be used to quantify changes in NAFLD during disease progression and on administration of potential therapeutics. In order to quantify the degree of fibrosis Sirius red stained liver sections were used to visualise and study collagen distribution.

[3] = tested on: HFHC fed male C57BL/6 mice; assay: In-vivo efficacy in high fat high cholesterol diet (HFHC) fed male C57BL/6 mice; settings: oral, 3 mg/kg BID, 3 mg/kg QD and 10 mg/kg BID, after 28 days
Procedure: C57BL/6J male mice were purchased at the age of 8 weeks. After an acclimation period of 1 week, animals were maintained on high fat high cholesterol diet (Research diets) with 60% kcal from fat plus 0.5% (w/w) extra cholesterol (Research diet, D02051401) for a period of 4 weeks. Age matched control animals (n=6) were maintained on normal chow. Mice were dosed with vehicle, test compounds and GW4064 morning (7.00 AM) and evening (5:00 PM) from day 0 to 27. At 28th day, animals were dosed at 7:00 AM and kept on fasting for next 4 hours before blood and tissues collection. Plasma samples separated from collected blood were stored at −20° C. immediately for estimation analysis. The samples were analyzed using the Siemens Dimension RxL Max Clinical chemistry analyzer.
Right liver lobe was used for the test compounds exposure, triglyceride and cholesterol estimation. Liver tissues were dissected, weighed and snap frozen and stored at −80° C. for further analysis of hepatic triglyceride, cholesterol and compound exposure. In brief, stored tissues were thawed to room temperature and triglycerides were extracted by homogenizing 25 mg of liver tissues in 1 ml of 5% Triton X100 (Lot No. 61K01741-Sigma Aldrich) in water. Homogenized tissues were slowly heated to 80° C. in water bath for 5 minutes. The samples were cooled down and again heated to solubilize all the triglycerides into solution. The samples were centrifuged for 5 minutes at 4000 RPM and supernatant was collected for quantification^3 using commercially available kit from ERBA (Lot No. B061832).
Homogenized samples were centrifuge at 13000 g for 10 minutes to remove insoluble material. The organic phase was separated into new tube and air dried at 50° C. to remove chloroform. Thereafter, samples were vacuumed for 30 minutes to remove residue organic solvent. Dried lipids were dissolved in 200 μL of cholesterol assay buffer (provided with Sigma cholesterol assay kit Lot No. B2J210603V), sonicated for 20 minutes and vortexed until mixture was homogenous as mentioned in kit protocol. Samples were diluted with cholesterol assay buffer at (1:10) ratio to fit in standard curve and finally 50 μL of diluted samples were used for the assay.
Compound levels were also measured in the plasma and liver to understand its distribution profile.

Structure (SMILES): O=S([O-])c1cc(F)c2nc(N3[C@@H]4CC[C@H]3C[C@@H](OCc3c(-c5ccccc5OC(F)(F)F)noc3C3CC3)C4)sc2c1.[Na+] [Example 2, Sodium 2-(3-((5-cyclopropyl-3-(2-(trifluoromethoxy)phenyl)isoxazol-4-yl)methoxy)-8-azabicyclo[3.2.1]octan-8-yl)-4-fluorobenzo[d]thiazole-6-sulfinate]
- Expression of FXR related and disease relevant genes (BSEP, SHP) [1]: upregulate
- concentration at 4 h ([2]; liver, 3 mg/kg, 3 mg/kg BID oral, 4 hours after last dose on day 28, read-out: Mean compound exposure, Liver): 54.8 ng/g
- concentration at 4 h ([2]; liver, 10 mg/kg, 10 mg/kg BID oral, 4 hours after last dose on day 28, read-out: Mean compound exposure, Liver): 138 ng/g
- concentration at 4 h ([2]; liver, 10 mg/kg, 10 mg/kg QD oral, 4 hours after last dose on day 28, read-out: Mean compound exposure, Liver): 80.1 ng/g
- Kp at 4 h ([2]; 3 mg/kg, 3 mg/kg BID oral): 54.8
- Kp at 4 h ([2]; 10 mg/kg, 10 mg/kg BID oral): 65.9
- Kp at 4 h ([2]; 10 mg/kg, 10 mg/kg QD oral): 66.8
- concentration at 4 h ([2]; plasma, 3 mg/kg, 3 mg/kg BID oral, 4 hours after last dose on day 28, read-out: Mean compound exposure, Plasma): 1 ng/mL
- concentration at 4 h ([2]; plasma, 10 mg/kg, 10 mg/kg BID oral, 4 hours after last dose on day 28, read-out: Mean compound exposure, Plasma): 2.1 ng/mL
- concentration at 4 h ([2]; plasma, 10 mg/kg, 10 mg/kg QD oral, 4 hours after last dose on day 28, read-out: Mean compound exposure, Plasma): 1.2 ng/mL
- Fibrosis area (Sirius red positive area) (STAM model NASH mice): Significant reductions
- NAFLD Activity score (NAS) (STAM model NASH mice): Significant reductions
- Cholesterol levels in the liver [3]: reductions
- Cholesterol levels in the plasma [3]: reductions
- Liver triglycerides [3]: reductions
